The values below are quoted from earlier work in patent publication US20120034285A1, “Mosquito Net with Dinotefuran and PBO for Killing Mosquitoes, Especially Mosquitoes with Pyrethroid Resistance” (priority 2009, published 2012).

Data set [1] concerns Aedes aegypti. As to conditions: in vivo.
Data set [2] concerns cockroaches. As to conditions: PBO added as an oxidase inhibitor; Dinotefuran injected into the stomach.
The test system of data set [3] is mosquito strain VKPR (also termed VKPER) of the An. gambiae species. As to conditions: strain with mutation for knockdown-resistance against pyrethroids.
Data set [4] has as its system Anopheles gambiae. As to conditions: in vivo.
The test system of data set [5] is mosquitoes. As to conditions: in contrast to pyrethroids; also mentioned in JP 10 139604.
Data set [6] concerns Culex quinquefasciatus. As to conditions: in vivo.

In the case of `CN/C(=N/CC1CCOC1)N[N+](=O)[O-]` (stereo not drawn) [Dinotefuran], the lethal effect result in data set [1], in data set [3], in data set [4] and in data set [6] was “lethal effect” throughout. Further, the toxicity on cockroaches entry in data set [2] is “increased toxicity”. In data set [5], the mosquito repellent effect entry is given as “does not have a mosquito repellent effect”.
